pKd: −log10 of the molar value.
Experiments:
[1] = target: T1, lymphoid-specific helicase (LSH) (Homo sapiens, UniProt Q9NRZ9); assay: SPR; format: binding
T1 sequence (Q9NRZ9 1-838): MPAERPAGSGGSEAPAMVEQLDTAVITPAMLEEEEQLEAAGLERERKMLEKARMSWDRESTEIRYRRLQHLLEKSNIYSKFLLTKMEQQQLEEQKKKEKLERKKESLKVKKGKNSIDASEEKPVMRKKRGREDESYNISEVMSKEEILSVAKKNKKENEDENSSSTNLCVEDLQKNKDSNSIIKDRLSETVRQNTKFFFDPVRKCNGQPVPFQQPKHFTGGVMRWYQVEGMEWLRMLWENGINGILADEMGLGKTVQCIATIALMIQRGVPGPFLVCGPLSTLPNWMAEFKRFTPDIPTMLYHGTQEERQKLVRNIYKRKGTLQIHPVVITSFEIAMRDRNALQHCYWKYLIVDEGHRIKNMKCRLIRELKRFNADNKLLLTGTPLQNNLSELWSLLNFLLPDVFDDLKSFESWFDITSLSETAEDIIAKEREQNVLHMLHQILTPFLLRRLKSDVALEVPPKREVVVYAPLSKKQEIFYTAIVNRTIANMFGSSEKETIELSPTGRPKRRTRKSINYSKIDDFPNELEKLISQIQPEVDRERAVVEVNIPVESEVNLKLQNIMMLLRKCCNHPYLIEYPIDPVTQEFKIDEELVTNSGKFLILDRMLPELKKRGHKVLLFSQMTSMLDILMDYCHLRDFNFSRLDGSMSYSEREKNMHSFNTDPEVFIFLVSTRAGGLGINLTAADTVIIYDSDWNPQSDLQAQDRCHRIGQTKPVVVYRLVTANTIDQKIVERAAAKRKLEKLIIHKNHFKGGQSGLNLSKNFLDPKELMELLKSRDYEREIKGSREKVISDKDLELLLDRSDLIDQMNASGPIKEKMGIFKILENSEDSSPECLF

[2] = target: T1, lymphoid-specific helicase (LSH); assay: KD determination, SPR; format: binding

Compound C=C1C(=O)O[C@@H]2O[C@@]3(C)CC[C@H]4[C@H](C)CC[C@@H]1[C@@]24OO3 [ATT, artemisitene] has a pKd [1] of 5.21.

In the case of C[C@@H]1CC[C@H]2[C@@H](C)C(=O)O[C@@H]3O[C@@]4(C)CC[C@@H]1[C@]32OO4 [artemisinin], the pKd [2] was 4.49.

Source: paper PMC12720125 (Redox Biology, 2025)
